The values that follow come from ChEMBL document CHEMBL1201862, “PubChem BioAssay data set” (2004).

Among the test systems are SK-OV-3; SNB-19; Hs-578T; NCI/ADR-RES; SK-MEL-5; MDA-MB-231; K562; KM12; LOX IMVI; T47D; SN12C; ACHN; UO-31; SF-539; OVCAR-3; Malme-3M; SNB-75; TK-10; HL-60.
Holding throughout (assay): NCI tumour cell line growth inhibition, 48 h

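Interpolation was linear, between the two tested concentrations surrounding the appropriate level; five concentrations were tested over 48 hours in 96-well plates. GI50 is the concentration that inhibits growth by half.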 The source made the active and inactive calls. Rule as the data show it: active = GI50 up to about 1.1 µM and inactive = higher.

As to `COc1ccc(/C=N/NC(=O)O)cc1`, the GI50 in the experiment on SK-OV-3, with SNB-19, with Hs-578T, in the experiment on NCI/ADR-RES, in the experiment with SK-MEL-5 and in the experiment with MDA-MB-231 was > 100 µM (inactive) throughout. Further, the GI50 in the experiment with K562, with KM12, in the experiment on LOX IMVI, in the experiment on T47D, with SN12C and in the experiment with ACHN was > 100 µM (inactive) throughout. The GI50 with UO-31, in the experiment on SF-539, in the experiment on OVCAR-3, in the experiment on Malme-3M, in the experiment on SNB-75 and in the experiment on TK-10 was > 100 µM (inactive) throughout.

As for `O=C(O)c1ccccc1/C=N\N=C1NCCCCN1`, the GI50 in the experiment with SK-OV-3, in the experiment on SNB-19, with Hs-578T, in the experiment on NCI/ADR-RES, in the experiment on SK-MEL-5 and in the experiment with MDA-MB-231 was > 100 µM (inactive) in each case. The GI50 with K562, in the experiment with KM12, with LOX IMVI, with T47D, in the experiment with SN12C and with ACHN was > 100 µM (inactive) throughout. In addition, the GI50 in the experiment on UO-31, with SF-539, with OVCAR-3, in the experiment on Malme-3M, in the experiment with SNB-75 and in the experiment on TK-10 was > 100 µM (inactive) in each case.

Consider `Fc1ccc(Oc2nc3ccccc3nc2-c2ccccc2)cc1`, for which the GI50 with SK-OV-3 is > 100 µM (inactive); with SNB-19, > 100 µM (inactive); with Hs-578T it was 94.4 µM (inactive); in the experiment with HL-60, 13.9 µM (inactive); in the experiment on SK-MEL-5 it was > 100 µM (inactive); in the experiment with MDA-MB-231 it was > 100 µM (inactive). Further, the GI50 with K562, in the experiment with KM12, with LOX IMVI, in the experiment on SN12C, in the experiment with ACHN and with UO-31 was > 100 µM (inactive) throughout. The GI50 in the experiment with OVCAR-3, with Malme-3M and in the experiment on TK-10 was > 100 µM (inactive) in each case.

Take `Cc1c(Cl)c(S(N)(=O)=O)cc2c1N=CNS2(=O)=O`: the GI50 with SK-OV-3, in the experiment on SNB-19, with Hs-578T, in the experiment on NCI/ADR-RES, in the experiment with SK-MEL-5 and with MDA-MB-231 was > 100 µM (inactive) throughout. Besides, the GI50 in the experiment on K562, in the experiment with KM12, in the experiment on LOX IMVI, in the experiment with T47D, in the experiment on SN12C and with ACHN was > 100 µM (inactive) in each case. Besides, the GI50 with UO-31, in the experiment with OVCAR-3, in the experiment on Malme-3M, with SNB-75 and in the experiment on TK-10 was > 100 µM (inactive) each time.

Take `CC1CC(=O)Nc2ccccc2N1C(=O)C1CC1` (stereo not drawn): the GI50 in the experiment on SK-OV-3, in the experiment on SNB-19, in the experiment on Hs-578T, in the experiment on HL-60, in the experiment on SK-MEL-5 and in the experiment on MDA-MB-231 was > 100 µM (inactive) in each case. For the same compound, the GI50 in the experiment on K562, in the experiment with KM12, with LOX IMVI, with T47D, in the experiment on SN12C and with ACHN was > 100 µM (inactive) each time. In addition, the GI50 in the experiment with UO-31, with SF-539, in the experiment on OVCAR-3, with Malme-3M and in the experiment with TK-10 was > 100 µM (inactive) throughout.

Turning to `COc1ccc(NC(=S)N/N=C\c2ccc(NC(C)=O)cc2)cc1`, the GI50 with SK-OV-3 is > 100 µM (inactive); in the experiment on SNB-19 it was > 100 µM (inactive); in the experiment on Hs-578T, > 100 µM (inactive); in the experiment on HL-60 it was 41.1 µM (inactive); in the experiment with SK-MEL-5 it was > 100 µM (inactive); in the experiment with MDA-MB-231 it was > 100 µM (inactive). Besides, the GI50 with KM12, with LOX IMVI, in the experiment with T47D, in the experiment on SN12C, in the experiment with ACHN and in the experiment with UO-31 was > 100 µM (inactive) in each case. Further, the GI50 with OVCAR-3, in the experiment on Malme-3M, with SNB-75 and with TK-10 was > 100 µM (inactive) throughout.

Consider `Cc1cccc2c(N)c3cccc(C(=O)NCCN4CCOCC4)c3nc12`, for which the GI50 in the experiment on SK-OV-3 is 1.05 µM (active); in the experiment with SNB-19, 0.236 µM (active); in the experiment with Hs-578T, 0.0849 µM (active); in the experiment with NCI/ADR-RES, 4.35 µM (inactive); in the experiment with HL-60 it was 0.362 µM (active); in the experiment on SK-MEL-5, 0.853 µM (active). The GI50 in the experiment on MDA-MB-231 was 0.759 µM (active); with K562 it was 0.203 µM (active); in the experiment on KM12 it was 0.301 µM (active); in the experiment with LOX IMVI, 0.23 µM (active); in the experiment on SN12C it was 0.364 µM (active); in the experiment on ACHN it was 0.101 µM (active). Besides, the GI50 with UO-31 is 0.46 µM (active); in the experiment with SF-539, 0.171 µM (active); in the experiment on OVCAR-3, 1.47 µM (inactive); in the experiment on Malme-3M, 0.28 µM (active); in the experiment with SNB-75, 0.13 µM (active); in the experiment with TK-10, 2.1 µM (inactive).

Turning to `CCCCP(CCCC)(CCCC)=C(C(=O)OC)C(C(=O)OC)=C1SC(C(=O)OC)=C(C(=O)OC)S1`, the GI50 in the experiment with SK-OV-3 is 25.8 µM (inactive); with SNB-19 it was 20.3 µM (inactive); with Hs-578T, 18.5 µM (inactive); in the experiment on NCI/ADR-RES, > 10 µM (inactive); in the experiment with SK-MEL-5, 16.2 µM (inactive); in the experiment with MDA-MB-231, 17.9 µM (inactive). Moreover, the GI50 in the experiment on LOX IMVI is 13.2 µM (inactive); in the experiment on T47D, 13.5 µM (inactive); in the experiment with SN12C, 15.5 µM (inactive); with ACHN, 22.9 µM (inactive); with UO-31, 20.3 µM (inactive); with OVCAR-3, 19.3 µM (inactive). The results for the GI50 in the experiment on Malme-3M, with SNB-75 and in the experiment on TK-10 were 18.2 µM (inactive), 17.5 µM (inactive) and 38.6 µM (inactive), respectively.

Consider `Cc1nc(Cl)c2sc(=S)n(-c3ccc(F)cc3)c2n1`, for which the GI50 is 13.2 µM (inactive) in the experiment with SK-OV-3; 1.88 µM (inactive) in the experiment on SNB-19; 1.86 µM (inactive) in the experiment with Hs-578T; 6.56 µM (inactive) in the experiment with NCI/ADR-RES; 7.16 µM (inactive) with HL-60; 3.04 µM (inactive) with SK-MEL-5. The GI50 was 7.98 µM (inactive) in the experiment with MDA-MB-231; 7.6 µM (inactive) in the experiment on K562; 12.7 µM (inactive) in the experiment on KM12; 1.77 µM (inactive) in the experiment on LOX IMVI; 5.52 µM (inactive) with SN12C; 13.9 µM (inactive) in the experiment on ACHN. Besides, the GI50 in the experiment on UO-31 was 1.69 µM (inactive); with OVCAR-3, 1.94 µM (inactive); in the experiment with Malme-3M, 10.6 µM (inactive); with SNB-75 it was 1.44 µM (inactive); with TK-10, 1.99 µM (inactive).

On to `O=C(O)CCCN1CCCCC1`, for which the GI50 in the experiment on SNB-19, with Hs-578T, in the experiment with NCI/ADR-RES, in the experiment on SK-MEL-5, with MDA-MB-231 and in the experiment on K562 was > 100 µM (inactive) each time. Further, the GI50 in the experiment on KM12, in the experiment on LOX IMVI, in the experiment on T47D, with SN12C, in the experiment with ACHN and with UO-31 was > 100 µM (inactive) in each case. For the same compound, the GI50 in the experiment with OVCAR-3, in the experiment with Malme-3M, in the experiment with SNB-75 and in the experiment on TK-10 was > 100 µM (inactive) each time.

`Cc1ccc(CC(Cc2ccccc2C)C(=O)O)c(C(=O)O)c1` (stereo not drawn): the GI50 with SNB-19, in the experiment on Hs-578T, in the experiment on NCI/ADR-RES, with HL-60, in the experiment with SK-MEL-5 and in the experiment with MDA-MB-231 was > 100 µM (inactive) each time. Further, the GI50 in the experiment with K562, with KM12, in the experiment on LOX IMVI, with SN12C, with ACHN and with UO-31 was > 100 µM (inactive) throughout. For the same compound, the GI50 with SF-539, in the experiment with OVCAR-3, in the experiment on Malme-3M, in the experiment on SNB-75 and in the experiment with TK-10 was > 100 µM (inactive) throughout.

As to `CC(O[Si](c1ccccc1)(c1ccccc1)C(C)(C)C)[C@H](NC(=O)OC(C)(C)C)C(=O)O` (stereo partly drawn), the GI50 is 30.4 µM (inactive) with SK-OV-3; 36.1 µM (inactive) in the experiment with SNB-19; 57.1 µM (inactive) in the experiment on Hs-578T; 46.7 µM (inactive) with NCI/ADR-RES; 27.3 µM (inactive) in the experiment on HL-60; 21.6 µM (inactive) with SK-MEL-5. Also, the GI50 is 46.6 µM (inactive) in the experiment with K562; 35.3 µM (inactive) in the experiment with KM12; 39.8 µM (inactive) in the experiment on T47D; 30.8 µM (inactive) with ACHN; 33.9 µM (inactive) in the experiment with UO-31; 50 µM (inactive) in the experiment with Malme-3M. In addition, the figures for the GI50 in the experiment on SNB-75 and in the experiment on TK-10 were 43.7 µM (inactive) and 45 µM (inactive), respectively.
